# Where a SMILES comes first, the peptide text is derived from it. [ ]: non-standard residue; d: D form. Ala(thiazol-2-yl) = N[C@@H](Cc1nccs1)C(=O)O; Cha = N[C@@H](CC1CCCCC1)C(=O)O; Chg = N[C@H](C(=O)O)C1CCCCC1; Tle = CC(C)(C)[C@H](N)C(=O)O; dDab = NCC[C@@H](N)C(=O)O; Orn = NCCC[C@H](N)C(=O)O; Dab = NCC[C@H](N)C(=O)O; Nva = CCC[C@H](N)C(=O)O
# Test system: human red blood cells (hRBC)
# Assay: Hemolysis of human red blood cells
# Format: cell-based
# Conditions: red cells of human, 1 h, 100
# Procedure: Lyophilized peptides were weighed on a Microbalance (Mettler MT5) and dissolved in sterile water to a final concentration of 1 mg/ml. Stock solutions were kept at +4° C., light protected.
# The peptides were tested for their hemolytic activity against human red blood cells (hRBC). Fresh hRBC were washed three times with phosphate buffered saline (PBS) and centrifuged for 10 min at 2000×g. Compounds (100 μg/ml) were incubated with 20% hRBC (v/v) for 1 h at 37° C. and shaking at 300 rpm. The final erythrocyte concentration was approximately 0.9×10^9 cells/ml. A value of 0% and 100% cell lyses, respectively, was determined by incubation of hRBC in the presence of PBS containing 0.001% acetic acid and 2.5% Triton X-100 in H2O, respectively. The samples were centrifuged, the supernatants were 8-fold diluted in PBS buffer and the optical densities (OD) were measured at 540 nm. The 100% lyses value (OD540H2O) gave an OD540 of approximately 0.5-1.0.
# Percent hemolysis was calculated as follows: (OD540peptide/OD540H2O)×100%.
row,SMILES,Hemolysis at 100 μg/ml [%]
1,CC[C@H](C)[C@@H]1NC(=O)[C@@H]2CCCN2C(=O)[C@H]2CCCN2C(=O)[C@H](CO)NC(=O)[C@H](C)NC(=O)[C@H](C(C)(C)C)NC(=O)[C@H](CCN)NC(=O)[C@H](Cc2c[nH]c3ccccc23)NC(=O)[C@H](CCN)NC(=O)[C@@H](CCN)NC(=O)[C@H](CCCCN)NC(=O)[C@H](CCN)NC(=O)[C@H](Cc2ccc(O)cc2)NC(=O)[C@H](CO)NC1=O [compound 82] (cyclo(ISY[Dab]K[dDab][Dab]W[Dab][Tle]AS[dP]P)),1
2,CC(C)C[C@@H]1NC(=O)[C@@H]2CCCN2C(=O)[C@H]2CCCN2C(=O)[C@H](CO)NC(=O)[C@H](CO)NC(=O)[C@H](C2CCCCC2)NC(=O)[C@H](CCN)NC(=O)[C@H](Cc2c[nH]c3ccccc23)NC(=O)[C@H](CCN)NC(=O)[C@@H](CCN)NC(=O)[C@H](CCCN)NC(=O)[C@H](CCN)NC(=O)[C@H](Cc2ccc(O)cc2)NC(=O)[C@H](CO)NC1=O [compound 116] (cyclo(LSY[Dab][Orn][dDab][Dab]W[Dab][Chg]SS[dP]P)),3
3,CC(C)C[C@@H]1NC(=O)[C@@H]2CCCN2C(=O)[C@H]2CCCN2C(=O)[C@H](CO)NC(=O)[C@H](CO)NC(=O)[C@H](C(C)(C)C)NC(=O)[C@H](CCN)NC(=O)[C@H](Cc2c[nH]c3ccccc23)NC(=O)[C@H](CCN)NC(=O)[C@@H](CCN)NC(=O)[C@H](CCCN)NC(=O)[C@H](CCN)NC(=O)[C@H](CC2CCCCC2)NC(=O)[C@H](C)NC1=O [compound 152] (cyclo(LA[Cha][Dab][Orn][dDab][Dab]W[Dab][Tle]SS[dP]P)),5
4,CCC[C@@H]1NC(=O)[C@@H]2CCCN2C(=O)[C@H]2CCCN2C(=O)[C@H](CO)NC(=O)[C@H](C)NC(=O)[C@H](C(C)(C)C)NC(=O)[C@H](CCN)NC(=O)[C@H](Cc2c[nH]c3ccccc23)NC(=O)[C@H](CCN)NC(=O)[C@@H](CCN)NC(=O)[C@H](CCCN)NC(=O)[C@H](CCN)NC(=O)[C@H](Cc2ccc(O)cc2)NC(=O)[C@H](CO)NC1=O [compound 47] (cyclo([Nva]SY[Dab][Orn][dDab][Dab]W[Dab][Tle]AS[dP]P)),1
5,CC(C)[C@@H]1NC(=O)[C@@H]2CCCN2C(=O)[C@H]2CCCN2C(=O)[C@H](CO)NC(=O)[C@H](C)NC(=O)[C@H](C(C)(C)C)NC(=O)[C@H](CCN)NC(=O)[C@H](Cc2c[nH]c3ccccc23)NC(=O)[C@H](CCN)NC(=O)[C@@H](CCN)NC(=O)[C@H](CCCN)NC(=O)[C@H](CCN)NC(=O)[C@H](Cc2ccc(O)cc2)NC(=O)[C@H](CO)NC1=O [compound 45] (cyclo(VSY[Dab][Orn][dDab][Dab]W[Dab][Tle]AS[dP]P)),2
6,CC(C)C[C@@H]1NC(=O)[C@@H]2CCCN2C(=O)[C@H]2CCCN2C(=O)[C@H](CO)NC(=O)[C@H](CO)NC(=O)[C@H](Cc2c[nH]c3ccccc23)NC(=O)[C@H](CCN)NC(=O)[C@H](Cc2c[nH]c3ccccc23)NC(=O)[C@H](CCN)NC(=O)[C@@H](CCN)NC(=O)[C@H](CCCN)NC(=O)[C@H](CCN)NC(=O)[C@H](Cc2ccc(O)cc2)NC(=O)[C@H](CO)NC1=O [compound 111] (cyclo(LSY[Dab][Orn][dDab][Dab]W[Dab]WSS[dP]P)),1
7,C[C@@H]1NC(=O)[C@H](Cc2c[nH]c3ccccc23)NC(=O)[C@@H]2CCCN2C(=O)[C@H]2CCCN2C(=O)[C@H](CO)NC(=O)[C@H](Cc2nccs2)NC(=O)[C@H](C(C)(C)C)NC(=O)[C@H](CCN)NC(=O)[C@H](Cc2c[nH]c3ccccc23)NC(=O)[C@H](CCN)NC(=O)[C@@H](CCN)NC(=O)[C@H](CCCN)NC(=O)[C@H](CCN)NC(=O)[C@H](CC2CCCCC2)NC1=O [compound 7] (cyclo(WA[Cha][Dab][Orn][dDab][Dab]W[Dab][Tle][Ala(thiazol-2-yl)]S[dP]P)),8

# From patent US9938322B2, “β-hairpin peptidomimetics” (priority 2013, dated 2018)
